Target: T1, JAK3 (JH1 and JH2 domain) (Homo sapiens, UniProt P52333)
T1 sequence (P52333 521-1111 limits assumed): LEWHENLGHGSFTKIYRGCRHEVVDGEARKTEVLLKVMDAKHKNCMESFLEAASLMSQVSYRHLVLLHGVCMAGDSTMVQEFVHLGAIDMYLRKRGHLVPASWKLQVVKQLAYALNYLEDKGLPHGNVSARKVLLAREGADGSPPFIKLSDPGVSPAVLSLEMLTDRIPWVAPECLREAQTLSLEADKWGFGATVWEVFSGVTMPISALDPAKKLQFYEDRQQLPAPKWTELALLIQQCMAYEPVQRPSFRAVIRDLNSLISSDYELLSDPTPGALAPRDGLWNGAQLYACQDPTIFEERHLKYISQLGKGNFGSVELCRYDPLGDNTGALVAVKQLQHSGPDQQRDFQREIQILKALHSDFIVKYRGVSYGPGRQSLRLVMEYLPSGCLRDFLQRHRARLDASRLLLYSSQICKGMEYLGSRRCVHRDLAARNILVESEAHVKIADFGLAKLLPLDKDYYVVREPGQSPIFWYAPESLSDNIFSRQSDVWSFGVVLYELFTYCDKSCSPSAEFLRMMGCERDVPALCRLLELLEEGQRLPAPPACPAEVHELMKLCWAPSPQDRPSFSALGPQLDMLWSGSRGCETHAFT
Test: JAK3 Kinase Assay (ELISA of peptide substrate phosphorylation)
Assay type: biochemical
Conditions: purified JAK3 enzyme, 10 μM ATP, biotinylated peptide substrate, 1 hour at room temperature
Procedure, shortened: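 Sf21-baculovirus-expressed JAK3 (JH1+JH2), glutathione-bead purified, with biotinylated peptide substrate (in buffer containing 10 μM ATP) in HEPES pH 7.5/MgCl2/DTT, 1 h RT. Product was captured on Neutravidin, detected with HRP anti-phosphotyrosine (PY99)/TMB, OD 450/650 nm. Triplicate 16-point half-log series from 200 μM gave IC50; otherwise % inhibition at 1 μM.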

Compound | IC50 [nM]
CC(C)NC(=O)OCC1(O)Cn2c3ccccc3c3c4c(c5c6ccccc6n(c5c32)C1)C(=O)NC4 (stereo not shown) [Cpd 135, 12,13-[2-hydroxy-2-(isopropyl-carbamoyloxymethyl)-propan-1,3-yl]-6,7,12,13-tetrahydro-5-oxo-5H-indolo[2,3-a]pyrrolo[3,4-c]carbazole] | > 200
COCCNC(=O)OCC1(O)Cn2c3ccccc3c3c4c(c5c6ccccc6n(c5c32)C1)C(=O)NC4 (stereo not shown) [Cpd 136, 12,13-{2-hydroxy-2-[(2-methoxy-ethyl)carbamoyloxymethyl]-propan-1,3-yl}-6,7,12,13-tetrahydro-5-oxo-5H-indolo[2,3-a]pyrrolo[3,4-c]carbazole] | 123
O=C1NCc2c1c1c3ccccc3n3c1c1c2c2ccccc2n1CC(O)(COC(=O)N1CCN(c2ccc(O)cc2)CC1)C3 (stereo not shown) [Cpd 137, 12,13-(2-hydroxy-2-{[4-(4-hydroxy-phenyl)piperazin-1-yl]carbonyloxymethyl}-propan-1,3-yl)-6,7,12,13-tetrahydro-5-oxo-5H-indolo[2,3-a]pyrrolo[3,4-c]carbazole] | 175
O=C1NCc2c1c1c3ccccc3n3c1c1c2c2ccccc2n1CC(O)(COC(=O)N1CCOCC1)C3 (stereo not shown) [Cpd 138, 12,13-[2-hydroxy-2-(morpholin-4-yl-carbonyloxymethyl)-propan-1,3-yl]-6,7,12,13-tetrahydro-5-oxo-5H-indolo[2,3-a]pyrrolo[3,4-c]carbazole] | 161
O=C(NCCc1ccccn1)OCC1(O)Cn2c3ccccc3c3c4c(c5c6ccccc6n(c5c32)C1)C(=O)NC4 (stereo not shown) [Cpd 139] | 160
O=C(NCCCN1CCCC1=O)OCC1(O)Cn2c3ccccc3c3c4c(c5c6ccccc6n(c5c32)C1)C(=O)NC4 (stereo not shown) [Cpd 140, 12,13-(2-hydroxy-2-{[3-(2-oxo-pyrrolidin-1-yl)-prop-1-yl]carbamoyloxymethyl}-propan-1,3-yl)-6,7,12,13-tetrahydro-5-oxo-5H-indolo[2,3-a]pyrrolo[3,4-c]carbazole] | 72
Cc1ccc(CNC(=O)OCC2(O)Cn3c4ccccc4c4c5c(c6c7ccccc7n(c6c43)C2)C(=O)NC5)o1 (stereo not shown) [Cpd 141, 12,13-(2-hydroxy-2-{[(5-methyl-furan-2-yl)methyl]carbamoyloxymethyl}-propan-1,3-yl)-6,7,12,13h-tetrahydro-5-oxo-5H-indolo[2,3-a]pyrrolo[3,4-c]carbazole] | 117
O=C1NCc2c1c1c3ccccc3n3c1c1c2c2ccccc2n1CC(O)(COC(=O)N1CCN(C2CCCCC2)CC1)C3 (stereo not shown) [Cpd 142, 12,13-{2-hydroxy-2-[(4-cyclohexyl-piperazin-1-yl)carbonyloxymethyl]-propan-1,3-yl}-6,7,12,13-tetrahydro-5-oxo-5H-indolo[2,3-a]pyrrolo[3,4-c]carbazole] | > 200
O=C1NCc2c1c1c3ccccc3n3c1c1c2c2ccccc2n1CC(O)(COC(=O)N1CCC(CO)CC1)C3 (stereo not shown) [Cpd 143, 12,13-{2-hydroxy-2-[(4-hydroxymethyl-piperidin-1-yl)carbonyloxymethyl]-propan-1,3-yl}-6,7,12,13-tetrahydro-5-oxo-5H-indolo[2,3-a]pyrrolo[3,4-c]carbazole] | ~200
O=C1NCc2c1c1c3ccccc3n3c1c1c2c2ccccc2n1CC(O)(COC(=O)N1CCN(c2ccncc2)CC1)C3 (stereo not shown) [Cpd 144, 12,13-{2-hydroxy-2-[(4-pyridin-4-yl-piperazin-1-yl)carbonyloxymethyl]-propan-1,3-yl}-6,7,12,13-tetrahydro-5-oxo-5H-indolo[2,3-a]pyrrolo[3,4-c]carbazole] | 886
O=C(NC1CCN(Cc2ccccc2)CC1)OCC1(O)Cn2c3ccccc3c3c4c(c5c6ccccc6n(c5c32)C1)C(=O)NC4 (stereo not shown) [Cpd 145, 12,13-{2-hydroxy-2-[(1-benzyl-piperidin-4-yl)carbamoyloxymethyl]-propan-1,3-yl}-6,7,12,13-tetrahydro-5-oxo-5H-indolo[2,3-a]pyrrolo[3,4-c]carbazole] | 31
O=C1NCc2c1c1c3ccccc3n3c1c1c2c2ccccc2n1CC(O)(COC(=O)N1CCCNCC1)C3 (stereo not shown) [Cpd 146, 12,13-{2-hydroxy-2-[(hexahydro-1H-1,4-diazepin-1-yl)carbonyloxymethyl]-propan-1,3-yl}-6,7,12,13-tetrahydro-5-oxo-5H-indolo[2,3-a]pyrrolo[3,4-c]carbazole] | 26
O=C1NCc2c1c1c3ccccc3n3c1c1c2c2ccccc2n1CC(O)(COC(=O)N1CCc2ccccc2C1)C3 (stereo not shown) [Cpd 147, 12,13-{2-hydroxy-2-[(1,2,3,4-tetrahydro-isoquinolin-2-yl)carbonyloxymethyl]-propan-1,3-yl}-6,7,12,13-tetrahydro-5-oxo-5H-indolo[2,3-a]pyrrolo[3,4-c]carbazole] | 28
CN(C)CCN(C)C(=O)OCC1(O)Cn2c3ccccc3c3c4c(c5c6ccccc6n(c5c32)C1)C(=O)NC4 (stereo not shown) [Cpd 148, 12,13-(2-hydroxy-2-{[N-methyl-N-(2-dimethylamino-ethyl)]carbamoyloxymethyl}-propan-1,3-yl)-6,7,12,13-tetrahydro-5-oxo-5H-indolo[2,3-a]pyrrolo[3,4-c]carbazole] | 25
O=C1NCc2c1c1c3ccccc3n3c1c1c2c2ccccc2n1CC(O)(COC(=O)N1CCC(O)CC1)C3 (stereo not shown) [Cpd 149, 12,13-{2-hydroxy-2-[(4-hydroxy-piperidin-1-yl)carbonyloxymethyl]-propan-1,3-yl}-6,7,12,13-tetrahydro-5-oxo-5H-indolo[2,3-a]pyrrolo[3,4-c]carbazole] | 39
O=C1NCc2c1c1c3ccccc3n3c1c1c2c2ccccc2n1CC(O)(COC(=O)N1CCC(N2CCCC2)CC1)C3 (stereo not shown) [Cpd 150, 12,13-{2-hydroxy-2-[(4-pyrrolidin-1-yl-piperidin-1-yl)carbonyloxymethyl]-propan-1,3-yl}-6,7,12,13-tetrahydro-5-oxo-5H-indolo[2,3-a]pyrrolo[3,4-c]carbazole] | 45
CN1CCN(CCCNC(=O)OCC2(O)Cn3c4ccccc4c4c5c(c6c7ccccc7n(c6c43)C2)C(=O)NC5)CC1 (stereo not shown) [Cpd 151, 12,13-(2-hydroxy-2-{[3-(4-methyl-piperazin-1-yl)prop-1-yl]carbamoyloxymethyl}-propan-1,3-yl)-6,7,12,13-tetrahydro-5-oxo-5H-indolo[2,3-a]pyrrolo[3,4-c]carbazole] | 23
O=C(NCCCn1ccnc1)OCC1(O)Cn2c3ccccc3c3c4c(c5c6ccccc6n(c5c32)C1)C(=O)NC4 (stereo not shown) [Cpd 152, 12,13-{2-hydroxy-2-[(3-1H-imidazol-1-yl-prop-1-yl)carbamoyloxymethyl]-propan-1,3-yl}-6,7,12,13-tetrahydro-5-oxo-5H-indolo[2,3-a]pyrrolo[3,4-c]carbazole] | 84
COc1ccc(CCNC(=O)OCC2(O)Cn3c4ccccc4c4c5c(c6c7ccccc7n(c6c43)C2)C(=O)NC5)cc1OC (stereo not shown) [Cpd 153, 12,13-(2-hydroxy-2-{[2-(3,4-dimethoxy-phenyl)ethyl]carbamoyloxymethyl}-propan-1,3-yl)-6,7,12,13-tetrahydro-5-oxo-5H-indolo[2,3-a]pyrrolo[3,4-c]carbazole] | 17
COCCNC(=O)OCC1Cn2c3ccccc3c3c4c(c5c6ccccc6n(c5c32)C1)C(=O)NC4 (stereo not shown) [Cpd 154, 12,13-{2-[(2-methoxy-ethyl)carbamoyloxymethyl]propan-1,3-yl]-6,7,12,13-tetrahydro-5-oxo-5H-indolo[2,3-a]pyrrolo[3,4-c]carbazole] | 84
CC(C)NC(=O)OCC1Cn2c3ccccc3c3c4c(c5c6ccccc6n(c5c32)C1)C(=O)NC4 (stereo not shown) [Cpd 155] | 144
Cc1ccc(CNC(=O)OCC2Cn3c4ccccc4c4c5c(c6c7ccccc7n(c6c43)C2)C(=O)NC5)o1 (stereo not shown) [Cpd 156, 12,13-(2-{[(5-methyl-furan-2-yl)methyl]carbamoyloxymethyl}-propan-1,3-yl)-6,7,12,13-tetrahydro-5-oxo-5H-indolo[2,3-a]pyrrolo[3,4-c]carbazole] | ~200
O=C(NCCCN1CCCC1=O)OCC1Cn2c3ccccc3c3c4c(c5c6ccccc6n(c5c32)C1)C(=O)NC4 (stereo not shown) [Cpd 157, 12,13-(2-{[3-(2-oxo-pyrrolidin-1-yl)prop-1-yl]carbamoyloxymethyl}-propan-1,3-yl)-6,7,12,13-tetrahydro-5-oxo-5H-indolo[2,3-a]pyrrolo[3,4-c]carbazole] | > 200
O=C1NCc2c1c1c3ccccc3n3c1c1c2c2ccccc2n1CC(COC(=O)N1CCN(c2ccc(O)cc2)CC1)C3 (stereo not shown) [Cpd 158, 12,13-(2-{[4-(4-hydroxy-phenyl)piperazin-1-yl]carbonyloxymethyl}-propan-1,3-yl)-6,7,12,13-tetrahydro-5-oxo-5H-indolo[2,3-a]pyrrolo[3,4-c]carbazole] | 123
O=C(NCCc1ccccn1)OCC1Cn2c3ccccc3c3c4c(c5c6ccccc6n(c5c32)C1)C(=O)NC4 (stereo not shown) [Cpd 160, 12,13-{2-[(2-pyridin-2-yl-ethyl)carbamoyloxymethyl]-propan-1,3-yl}-6,7,12,13-tetrahydro-5-oxo-5H-indolo[2,3-a]pyrrolo[3,4-c]carbazole] | > 200
